In PubChem BioAssay (NCI):
Several values for one entry are separate records, joined by “and”; a condition that tells them apart may be missing. Identical values can stand only once.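 Five concentrations, 48 hours, 96-well plates. Abbreviation: GI50, concentration required for 50% inhibition of growth. Definition used: TGI = concentration required for complete inhibition of growth.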

Key:
Assay in all cases: NCI-60 cell line screen, 48 h
SF-268 CNS = system: SF-268 CNS
UO-31 renal = system: UO-31 renal
U251 CNS = system: U251 CNS
OVCAR-3 ovarian = system: OVCAR-3 ovarian
SNB-19 CNS = system: SNB-19 CNS
OVCAR-5 ovarian = system: OVCAR-5 ovarian
OVCAR-4 ovarian = system: OVCAR-4 ovarian
NCI-H522 lung = system: NCI-H522 lung
COLO 205 colon = system: COLO 205 colon
SK-MEL-5 melanoma = system: SK-MEL-5 melanoma

Q: How did the TGI (SF-268 CNS) turn out when `C=C(CCCCC)CN1CCCC1C(C)=O` (centres undefined) was run?
A: The TGI was over 100 µM.

Q: And the TGI (UO-31 renal)?
A: Its TGI is over 100 µM.

Q: What about the TGI (U251 CNS) of the same compound?
A: Its TGI is over 100 µM.

Q: What about the TGI (OVCAR-3 ovarian) of the same compound?
A: Its TGI is over 100 µM.

Q: What about the TGI (SNB-19 CNS) of the same compound?
A: Its TGI is over 100 µM.

Q: What about the TGI (OVCAR-5 ovarian) of the same compound?
A: Its TGI is over 96.1 µM.

Q: What about the TGI (OVCAR-4 ovarian) of the same compound?
A: The TGI was 99.3 µM.

Q: And the TGI (NCI-H522 lung)?
A: The TGI was 34.7 µM.

Q: What about the TGI (COLO 205 colon) of the same compound?
A: The TGI was 32.4 µM.

Q: And the TGI (SK-MEL-5 melanoma)?
A: Its TGI is 33.2 µM.

Q: How did the TGI (SF-268 CNS) turn out when `O=C(/C=C\c1ccccc1O)c1ccc(O)cc1O` was run?
A: Its TGI is over 100 µM.

Q: What about the TGI (UO-31 renal) of the same compound?
A: Its TGI is over 100 µM.

Q: What about the TGI (U251 CNS) of the same compound?
A: Its TGI is over 100 µM.

Q: What about the TGI (OVCAR-3 ovarian) of the same compound?
A: The TGI was over 100 µM.

Q: And the TGI (SNB-19 CNS)?
A: The TGI was over 100 µM.

Q: What about the TGI (OVCAR-5 ovarian) of the same compound?
A: The TGI was over 100 µM.

Q: What about the TGI (OVCAR-4 ovarian) of the same compound?
A: The TGI was over 100 µM.

Q: And the TGI (NCI-H522 lung)?
A: Its TGI is over 100 µM.

Q: And the TGI (COLO 205 colon)?
A: Its TGI is 72.9 µM.

Q: What about the TGI (SK-MEL-5 melanoma) of the same compound?
A: Its TGI is over 100 µM.

Q: What does the source list for `C=CCNC(=O)NCCCCC(NC(C)=O)C(=O)NCc1ccccc1` (centres undefined)?
A: TGI (SF-268 CNS): > 100 µM; TGI (UO-31 renal): > 100 µM; TGI (U251 CNS): > 100 µM; TGI (OVCAR-3 ovarian): > 100 µM; TGI (SNB-19 CNS): > 100 µM; TGI (OVCAR-5 ovarian): > 100 µM; TGI (OVCAR-4 ovarian): > 100 µM; TGI (NCI-H522 lung): > 100 µM; TGI (COLO 205 colon): > 100 µM; TGI (SK-MEL-5 melanoma): > 100 µM

Q: `CN[C@H]1CN(c2ccc3c(=O)c(C(=O)O)cn(-c4nccs4)c3n2)C[C@@H]1OC` was tested. Which GI50 (SF-268 CNS) did it give?
A: Its GI50 is 0.706 µM.

Q: What about the TGI (SF-268 CNS) of the same compound?
A: Its TGI is 6.49 µM.

Q: What about the GI50 (UO-31 renal) of the same compound?
A: Its GI50 is 0.566 µM.

Q: What about the TGI (UO-31 renal) of the same compound?
A: Its TGI is 2.93 µM.

Q: What about the GI50 (U251 CNS) of the same compound?
A: Its GI50 is 0.42 µM.

Q: And the TGI (U251 CNS)?
A: The TGI was 7.23 µM.

Q: And the GI50 (OVCAR-3 ovarian)?
A: The GI50 was 1.82 µM.

Q: And the TGI (OVCAR-3 ovarian)?
A: The TGI was 6.48 µM.

Q: What about the GI50 (SNB-19 CNS) of the same compound?
A: The GI50 was 0.376 µM.

Q: What about the TGI (SNB-19 CNS) of the same compound?
A: Its TGI is 14.2 µM.

Q: And the GI50 (OVCAR-5 ovarian)?
A: Its GI50 is 2.31 µM.

Q: What about the TGI (OVCAR-5 ovarian) of the same compound?
A: The TGI was 6.45 µM.

Q: And the GI50 (OVCAR-4 ovarian)?
A: Its GI50 is 2.27 µM.

Q: And the TGI (OVCAR-4 ovarian)?
A: The TGI was 9.22 µM.

Q: And the GI50 (NCI-H522 lung)?
A: Its GI50 is 0.733 µM.

Q: And the TGI (NCI-H522 lung)?
A: Its TGI is 2.98 µM.

Q: And the GI50 (COLO 205 colon)?
A: Its GI50 is 1.21 µM.

Q: And the TGI (COLO 205 colon)?
A: The TGI was 2.66 µM.

Q: What about the GI50 (SK-MEL-5 melanoma) of the same compound?
A: The GI50 was 0.831 µM.

Q: And the TGI (SK-MEL-5 melanoma)?
A: Its TGI is 2.23 µM.

Q: `Oc1ccc(C=Nc2ccccc2O)cc1` was tested. Which TGI (SF-268 CNS) did it give?
A: The TGI was over 100 µM.

Q: And the TGI (UO-31 renal)?
A: Its TGI is over 100 µM.

Q: And the TGI (U251 CNS)?
A: The TGI was over 100 µM.

Q: And the TGI (OVCAR-3 ovarian)?
A: Its TGI is over 100 µM.

Q: What about the TGI (SNB-19 CNS) of the same compound?
A: Its TGI is over 100 µM.

Q: And the TGI (OVCAR-5 ovarian)?
A: Its TGI is over 100 µM.

Q: What about the TGI (OVCAR-4 ovarian) of the same compound?
A: The TGI was over 100 µM.

Q: What about the TGI (NCI-H522 lung) of the same compound?
A: Its TGI is over 100 µM.

Q: What about the TGI (COLO 205 colon) of the same compound?
A: The TGI was 91.7 µM.

Q: What about the TGI (SK-MEL-5 melanoma) of the same compound?
A: Its TGI is 62.7 µM.

Q: How did the TGI (SF-268 CNS) turn out when `CCC[C@H]1O[C@@H]2CC(=O)O[C@@H]2C2=C1C(=O)C=CC2=O` was run?
A: The TGI was 18.7 µM.

Q: And the TGI (UO-31 renal)?
A: The TGI was 32.5 µM.

Q: What about the TGI (U251 CNS) of the same compound?
A: The TGI was over 53.7 µM.

Q: And the TGI (OVCAR-3 ovarian)?
A: Its TGI is 28.5 µM.

Q: And the TGI (SNB-19 CNS)?
A: The TGI was over 100 µM.

Q: What about the TGI (OVCAR-5 ovarian) of the same compound?
A: Its TGI is 36 µM.

Q: And the TGI (OVCAR-4 ovarian)?
A: The TGI was 29.9 µM.

Q: And the TGI (NCI-H522 lung)?
A: Its TGI is 4.68 µM.

Q: What about the TGI (COLO 205 colon) of the same compound?
A: Its TGI is 9.03 µM.

Q: And the TGI (SK-MEL-5 melanoma)?
A: The TGI was 36 µM.

Q: What does the source list for `COc1ccccc1Nc1cc(O)c2c(=O)cc(-c3ccccc3)oc2c1`?
A: GI50 (SF-268 CNS): 4.71 µM; TGI (SF-268 CNS): 48.2 µM; GI50 (UO-31 renal): 3.57 µM; TGI (UO-31 renal): 21.5 µM; GI50 (U251 CNS): 3.63 µM; TGI (U251 CNS): > 100 µM; GI50 (OVCAR-3 ovarian): 2.05 µM; TGI (OVCAR-3 ovarian): 5.2 µM; GI50 (SNB-19 CNS): 2.99 µM; TGI (SNB-19 CNS): 15.7 µM; GI50 (OVCAR-5 ovarian): 4.82 µM; TGI (OVCAR-5 ovarian): 27.3 µM; GI50 (OVCAR-4 ovarian): 4.49 µM; TGI (OVCAR-4 ovarian): 47.8 µM; GI50 (NCI-H522 lung): 2.67 µM; TGI (NCI-H522 lung): 27.1 µM; GI50 (COLO 205 colon): 9.92 µM; TGI (COLO 205 colon): > 100 µM; GI50 (SK-MEL-5 melanoma): 3 µM; TGI (SK-MEL-5 melanoma): 9.58 µM

Q: Which results are given for `CC[C@H](C)[C@H](NC(=O)[C@H]1CCCCN1C)C(=O)N(C)[C@H](C[C@@H](OC(C)=O)c1cccc(C(=O)N[C@@H](Cc2ccccc2)C[C@H](C)C(=O)OC)n1)C(C)C`?
A: GI50 (SF-268 CNS): 0.00498 µM and 0.00661 µM; TGI (SF-268 CNS): > 25 µM; TGI (UO-31 renal): > 25 µM; GI50 (U251 CNS): 0.00408 µM and 0.00381 µM; TGI (U251 CNS): > 25 µM; GI50 (OVCAR-3 ovarian): 0.000398 µM and < 0.0025 µM; TGI (OVCAR-3 ovarian): 0.00308 µM and < 0.0025 µM; GI50 (SNB-19 CNS): 0.00461 µM and 0.0025 µM; TGI (SNB-19 CNS): > 25 µM; GI50 (OVCAR-5 ovarian): 0.0137 µM; TGI (OVCAR-5 ovarian): > 25 µM; GI50 (OVCAR-4 ovarian): 0.0277 µM and 0.0138 µM; TGI (OVCAR-4 ovarian): > 25 µM; GI50 (NCI-H522 lung): 0.00154 µM and 0.0025 µM; TGI (NCI-H522 lung): 0.00894 µM; GI50 (COLO 205 colon): 0.00182 µM and 0.0025 µM; TGI (COLO 205 colon): 0.0132 µM and 0.00446 µM; GI50 (SK-MEL-5 melanoma): 0.00107 µM and 0.0025 µM; TGI (SK-MEL-5 melanoma): 0.0382 µM and 0.0333 µM

Q: What does the source list for `CC1=N/C(=C/c2ccc3c(c2)OCO3)C(=O)O1`?
A: TGI (SF-268 CNS): > 100 µM; TGI (UO-31 renal): > 100 µM; TGI (U251 CNS): > 100 µM; TGI (OVCAR-3 ovarian): > 100 µM; TGI (SNB-19 CNS): > 100 µM; TGI (OVCAR-5 ovarian): > 100 µM; TGI (OVCAR-4 ovarian): > 100 µM; TGI (NCI-H522 lung): > 100 µM; TGI (COLO 205 colon): > 100 µM; TGI (SK-MEL-5 melanoma): > 100 µM
